In publication PMC10269165 (Antimicrobial Agents and Chemotherapy, 2023):

Experiment: WST-1 cytotoxicity assay in HCT-8 cells
Type: cell-based, human
Settings: human, HCT-8 cells (human ileocecal colorectal adenocarcinoma), read-out: Mean IC50 ± SEM, Cytotoxicity
Protocol: Compounds were tested for cytotoxicity in human ileocecal colorectal adenocarcinoma cells (HCT-8) (ATCC CCL-244; RRID:CVCL_2478) by using the cell proliferation reagent WST-1 (Roche) according to the manufacturer’s protocol. The WST-1 assay is a quantitative colorimetric assay for measurement of metabolically active cells. This assay is based on the reduction of the tetrazolium salt (WST-1) by viable cells. About 5 × 10^4 HCT-8 cells were seeded per well in 96-well plates and grown overnight in 200 μL of RPMI 1640 medium (without phenol red; Gibco) supplemented with 2.5 g/L of glucose, 1 mM sodium pyruvate, 1.5 g/L of sodium bicarbonate, 10% heat-inactivated FBS (Gibco), and 1× antibiotic-antimycotic (Gibco) at 37°C with 5% CO2 in a humidified incubator. Upon reaching 80 to 90% confluence, cells were treated with various concentrations of the test compounds for 24 h. Control wells received equivalent volumes of DMSO used in the reconstituted compounds. After 24 h of culture, 10 μL of the WST-1 reagent was added to each well, and the plates were incubated in the dark for 1 h at 37°C with 5% CO2. The plates were well agitated, and 150 μL of the medium from each well was transferred to a new clear flat-bottomed black 96-well plate (Corning). The absorbance was read at a test wavelength of 440 nm and a reference wavelength of 690 nm using a multimode microplate reader (Spectra Max iD3; Molecular Devices, USA). All of the reactions were prepared in triplicate. The dose-response curves were generated by nonlinear regression analysis with GraphPad PRISM software using control-normalized data to determine the half-maximal cytotoxicity (IC50) concentrations.

SMILES	IC50 at 24 h
CO[C@@]12[C@H](COC(N)=O)C3=C(C(=O)C(C)=C(N)C3=O)N1C[C@H]1[C@@H]2N1C (some centres unmarked) [NSC56410]	188 ± 4.19 µM
O=c1c(O)cccc2cc(O)c(O)c(O)c12 [NSC35676, purpurogallin]	566 ± 55.9 µM
